{"source": "ChEMBL document CHEMBL4371054", "about": "“Dual inhibition of Kif15 by oxindole and quinazolinedione chemical probes” (Bioorg Med Chem Lett, 2019)", "key": {"[1]": {"target": "T1, Aurora kinase A (Homo sapiens) (UniProt O14965)", "T1 sequence (whole entry)": "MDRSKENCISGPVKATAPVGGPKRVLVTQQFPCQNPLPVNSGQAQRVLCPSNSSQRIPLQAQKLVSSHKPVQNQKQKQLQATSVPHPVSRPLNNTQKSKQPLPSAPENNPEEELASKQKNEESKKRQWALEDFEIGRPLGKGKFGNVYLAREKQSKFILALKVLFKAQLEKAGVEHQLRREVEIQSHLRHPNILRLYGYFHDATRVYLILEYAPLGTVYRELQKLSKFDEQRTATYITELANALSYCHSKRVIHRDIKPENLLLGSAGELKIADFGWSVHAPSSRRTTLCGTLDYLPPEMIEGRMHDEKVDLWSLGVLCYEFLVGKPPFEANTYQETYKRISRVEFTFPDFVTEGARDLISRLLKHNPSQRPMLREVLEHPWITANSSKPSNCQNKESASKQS", "test": "Inhibition of AURKA (unknown origin) at 1 uM relative to control"}, "[2]": {"target": "T2, Kinesin-like protein KIF15 (Homo sapiens) (UniProt Q9NS87)", "T2 sequence (whole entry)": "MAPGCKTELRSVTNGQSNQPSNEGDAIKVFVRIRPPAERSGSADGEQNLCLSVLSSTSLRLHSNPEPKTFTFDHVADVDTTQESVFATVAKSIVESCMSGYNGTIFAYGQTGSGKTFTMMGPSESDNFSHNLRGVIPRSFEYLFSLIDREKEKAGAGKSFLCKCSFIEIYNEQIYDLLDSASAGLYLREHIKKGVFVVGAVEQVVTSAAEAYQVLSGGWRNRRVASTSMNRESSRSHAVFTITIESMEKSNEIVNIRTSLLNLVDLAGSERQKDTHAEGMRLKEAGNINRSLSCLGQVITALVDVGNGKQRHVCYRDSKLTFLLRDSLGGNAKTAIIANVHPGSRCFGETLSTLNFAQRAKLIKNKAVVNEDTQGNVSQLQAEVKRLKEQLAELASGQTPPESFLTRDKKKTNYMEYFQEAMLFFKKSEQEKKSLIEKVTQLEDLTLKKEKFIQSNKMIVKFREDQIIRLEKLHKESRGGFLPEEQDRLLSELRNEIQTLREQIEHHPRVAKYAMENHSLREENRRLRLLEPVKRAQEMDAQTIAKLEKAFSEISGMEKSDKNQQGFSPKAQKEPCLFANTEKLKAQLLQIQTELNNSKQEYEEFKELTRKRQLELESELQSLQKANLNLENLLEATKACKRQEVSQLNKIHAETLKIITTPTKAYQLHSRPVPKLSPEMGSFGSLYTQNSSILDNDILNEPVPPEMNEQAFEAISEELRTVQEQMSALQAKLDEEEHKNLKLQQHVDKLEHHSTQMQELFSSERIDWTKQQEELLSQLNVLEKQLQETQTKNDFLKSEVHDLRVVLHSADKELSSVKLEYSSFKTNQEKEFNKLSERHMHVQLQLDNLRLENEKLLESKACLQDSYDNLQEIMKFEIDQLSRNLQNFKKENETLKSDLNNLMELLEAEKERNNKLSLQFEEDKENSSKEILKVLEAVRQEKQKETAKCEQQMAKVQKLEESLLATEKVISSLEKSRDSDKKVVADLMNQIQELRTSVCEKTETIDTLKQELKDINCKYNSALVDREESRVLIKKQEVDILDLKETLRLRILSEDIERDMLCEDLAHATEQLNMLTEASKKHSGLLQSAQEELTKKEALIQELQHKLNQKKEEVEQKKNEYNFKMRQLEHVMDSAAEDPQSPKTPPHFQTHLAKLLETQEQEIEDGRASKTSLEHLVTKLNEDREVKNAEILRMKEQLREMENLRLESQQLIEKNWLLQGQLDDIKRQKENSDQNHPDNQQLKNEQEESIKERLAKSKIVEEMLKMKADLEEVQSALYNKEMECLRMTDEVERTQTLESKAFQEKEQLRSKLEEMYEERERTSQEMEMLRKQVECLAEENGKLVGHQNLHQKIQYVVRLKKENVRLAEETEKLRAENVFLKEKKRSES", "test": "(§1) ATP non-competitive inhibition of recombinant His6-tagged Kif15 ATPase activity (N700 residues) (unknown origin) expressed in HeLa cells at 0.5 to 2 uM using microtubule as substrate preincubated for 30 mins followed by varying levels of ATP addition by double reciprocal Lineweaver-Burk plot analysis"}, "[3]": {"target": "T2, Kinesin-like protein KIF15 (Homo sapiens)", "test": "Inhibition of recombinant His6-tagged Kif15 ATPase activity (N420 residues) (unknown origin) expressed in HeLa cells at 10 uM using microtubule as substrate preincubated for 15 mins followed by ATP addition and measured after 20 mins by ADP-Glo luminescence assay relative to control"}, "[4]": {"target": "T2, Kinesin-like protein KIF15 (Homo sapiens)", "test": "Inhibition of recombinant His6-tagged Kif15 (N700 residues) (unknown origin) expressed in HeLa cells assessed as reduction in Alexa-594 labelled microtubule gliding at 750 nM measured every 2 secs for 20 secs by epifluorescence microscopic analysis (reference value: 1%)", "assay_type": "cell-based"}, "[5]": {"target": "T2, Kinesin-like protein KIF15 (Homo sapiens)", "test": "Inhibition of Kif15 in TP53-deficient human RPE1 cells assessed as reduction in Kif15 level at 25 uM after 24 hrs by Western blot analysis relative to control"}, "[6]": {"target": "T2, Kinesin-like protein KIF15 (Homo sapiens)", "test": "Inhibition of Kif15 in TP53-deficient human RPE1 cells assessed as reduction in spindle-bound Kif15 level at 25 uM after 24 hrs by Hoechst 33342 staining based immunofluorescence microscopic analysis relative to control"}, "[7]": {"target": "T3, Kinesin-like protein KIF15 (Homo sapiens, UniProt Q9NS87)", "T3 sequence (Q9NS87 whole entry)": "T2 sequence (whole entry)", "test": "Inhibition of recombinant His6-tagged Kif15 ATPase activity (N420 residues) (unknown origin) expressed in HeLa cells using microtubule as substrate preincubated for 15 mins followed by ATP addition and measured after 20 mins by ADP-Glo luminescence assay"}, "[8]": {"target": "T2, Kinesin-like protein KIF15 (Homo sapiens)", "test": "Inhibition of Kif15 in K51-resistant human KIRC1 cells assessed as cells with monopolar spindles at 25 uM after 24 hrs by Hoechst 33342 staining based immunofluorescence microscopic analysis (reference value: 43 to 49%)", "set-up": "scale not given: the % may be the effect or the level left"}, "[9]": {"target": "T2, Kinesin-like protein KIF15 (Homo sapiens)", "test": "as §1, with “using varying levels of” for “using”, “by” for “by varying levels of”", "assay_type": "cell-based"}}, "note": "Activity calls are given as the source filed them. The rule behind the calls is not given here.", "data": [{"compound": "O=C1Nc2ccc(C(=O)c3ccco3)cc2/C1=C/c1cc(Cl)c(O)c(Cl)c1", "values": [{"measurement": "inhibition", "setting": "[1]", "result": 67, "unit": "%"}, {"measurement": "inhibition", "setting": "[2]", "result": "Active"}, {"measurement": "inhibition", "setting": "[3]", "result": 76, "unit": "%"}, {"measurement": "inhibition", "setting": "[4]", "result": 49, "unit": "%"}, {"measurement": "inhibition", "setting": "[5]", "result": 60, "unit": "%"}, {"measurement": "fold change (FC)", "setting": "[6]", "result": 3}, {"measurement": "IC50", "setting": "[7]", "result": 820, "unit": "nM"}, {"measurement": "Activity", "setting": "[8]", "result": 95, "unit": "%"}, {"measurement": "inhibition", "setting": "[9]", "result": "Active"}]}]}
